Assay results taken from patent publication US20240409530A1, “Disubstituted Pyrimidine Compounds for Ketohexokinase Inhibition” (Centennial Therapeutics, LLC, priority 2023, published 2024).
pIC50: −log10 of the molar value.

Experiments:
Test in all cases: KHK inhibition assay, recombinant isozyme (coupled pyruvate kinase/LDH, NADH absorbance 340 nm)
Type in all cases: biochemical
Settings in all cases: recombinant isozyme 6 nM, fructose 2 mM, ATP 0.1 mM
Rat recombinant KHK-C = Rat recombinant KHK-C (Rattus norvegicus (Rat), UniProt Q02974)
Protocol: (§1) Determination of Human and Rat recombinant KHK-A and KHK-C isozyme IC50 Values
(§2) An assay reagent cocktail was prepared by combining NADH, water, TEA, KCl, MgCl2, PEP, ATP, DTT, coupling enzymes (pyruvate kinase and lactate dehydrogenase, LDH) to final concentrations as shown in Table B.
(§3) To this was added the relevant KHK isozyme to a final concentration of 6 nM. Aliquots of each inhibitor compound were diluted via 5-fold serial dilutions to produce final concentrations ranging from 1000 nM to 0.064 nM. The inhibitor aliquots were added to the assay reagent cocktail containing KHK with fructose (at a concentration of 2 mM) in a 96-well plate. The absorbance at 340 nm was measured via spectrophotometry and inhibition was analyzed using non-linear regression.

Rat recombinant KHK-A = Rat recombinant KHK-A (Rattus norvegicus (Rat), UniProt Q02974)
Protocol: as §1, §2, §3

Human recombinant KHK-A = Human recombinant KHK-A (Homo sapiens (Human), UniProt P50053)
Protocol: as §1, §2, §3

Human recombinant KHK-C = Human recombinant KHK-C (Homo sapiens (Human), UniProt P50053)
Protocol: as §1, §2, §3

Sequence of Human recombinant KHK-A (P50053 other isoform, or with tags, fused parts or gaps): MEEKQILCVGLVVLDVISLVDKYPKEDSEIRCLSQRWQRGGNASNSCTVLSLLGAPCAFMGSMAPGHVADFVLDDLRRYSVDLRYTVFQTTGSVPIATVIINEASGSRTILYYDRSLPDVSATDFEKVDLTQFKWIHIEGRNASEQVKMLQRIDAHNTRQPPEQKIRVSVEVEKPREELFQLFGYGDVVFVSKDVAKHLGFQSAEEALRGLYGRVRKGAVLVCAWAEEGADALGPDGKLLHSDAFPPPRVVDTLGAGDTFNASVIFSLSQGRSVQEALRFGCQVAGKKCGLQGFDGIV
Sequence of Rat recombinant KHK-A (Q02974 other isoform, or with tags, fused parts or gaps): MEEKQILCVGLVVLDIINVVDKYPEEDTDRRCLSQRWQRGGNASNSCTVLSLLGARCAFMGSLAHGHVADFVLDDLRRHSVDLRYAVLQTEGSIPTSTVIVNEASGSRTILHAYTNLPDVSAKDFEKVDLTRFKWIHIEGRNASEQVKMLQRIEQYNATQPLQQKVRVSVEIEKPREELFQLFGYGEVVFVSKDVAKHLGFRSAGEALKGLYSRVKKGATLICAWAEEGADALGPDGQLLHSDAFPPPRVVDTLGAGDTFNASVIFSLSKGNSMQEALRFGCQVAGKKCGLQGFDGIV
Sequence of Human recombinant KHK-C (P50053 whole entry): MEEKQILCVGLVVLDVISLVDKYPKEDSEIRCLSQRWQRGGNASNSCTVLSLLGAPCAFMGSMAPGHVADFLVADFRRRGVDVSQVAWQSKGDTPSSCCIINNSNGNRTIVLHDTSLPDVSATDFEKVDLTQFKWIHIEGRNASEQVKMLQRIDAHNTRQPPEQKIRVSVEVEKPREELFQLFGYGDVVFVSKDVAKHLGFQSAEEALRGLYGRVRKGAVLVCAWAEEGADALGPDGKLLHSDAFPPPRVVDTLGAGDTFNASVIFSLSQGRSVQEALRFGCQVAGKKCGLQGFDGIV
Sequence of Rat recombinant KHK-C (Q02974 whole entry): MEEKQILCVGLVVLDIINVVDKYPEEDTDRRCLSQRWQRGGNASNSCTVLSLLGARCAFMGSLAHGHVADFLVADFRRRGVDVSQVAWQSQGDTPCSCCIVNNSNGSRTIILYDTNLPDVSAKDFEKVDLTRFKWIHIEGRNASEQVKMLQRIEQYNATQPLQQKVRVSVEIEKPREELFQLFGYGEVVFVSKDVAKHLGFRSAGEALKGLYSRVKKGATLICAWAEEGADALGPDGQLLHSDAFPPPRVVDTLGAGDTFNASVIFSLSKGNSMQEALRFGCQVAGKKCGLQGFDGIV

Row | SMILES | pIC50 (Rat recombinant KHK-C) | pIC50 (Rat recombinant KHK-A) | pIC50 (Human recombinant KHK-A) | pIC50 (Human recombinant KHK-C)
1 | C[C@H]1[C@H](O)CN1c1nc(-c2cnn(C3CN(C)C3)c2)c(Cl)c(C(F)(F)F)n1 [Compound A10, (2S,3R)-1-{5-chloro-4-[1-(1-methyl-3-azetidinyl)-4-pyrazolyl]-6-(trifluoromethyl)-2-pyrimidinyl}-2-methyl-3-azetidinol] | 8.96 | 9.70 | 9.70 | 9.07
2 | C[C@H]1CCN1c1nc(-c2cnn(CC(=O)N3CCNCC3)c2)c(C2CC2)c(C(F)(F)F)n1 [Compound A30, 2-(4-{2-[(S)-2-methyl-1-azetidinyl]-5-cyclopropyl-6-(trifluoromethyl)-4-pyrimidinyl}-1-pyrazolyl)-1-(1-piperazinyl)-1-ethanone] | – | – | – | 7.38
3 | COc1c(-c2cnn(C3CN(C)C3)c2)nc(N2C[C@@H](O)[C@@H]2C)nc1C(F)(F)F [Compound A8, (2S,3R)-1-{5-methoxy-4-[1-(1-methyl-3-azetidinyl)-4-pyrazolyl]-6-(trifluoromethyl)-2-pyrimidinyl}-2-methyl-3-azetidinol] | 7.80 | 8.26 | 8.11 | 8.19
4 | O=C(Cn1cc(-c2cc(C(F)F)nc(N3CC[C@@H]3C(F)(F)F)n2)cn1)N1CCNCC1 [Compound A20, 2-(4-{2-[(R)-2-(trifluoromethyl)-1-azetidinyl]-6-(difluoromethyl)-4-pyrimidinyl}-1-pyrazolyl)-1-(1-piperazinyl)-1-ethanone] | – | – | – | 6.88
5 | COc1c(-c2cnn(CC(=O)N3CCNCC3)c2)nc(N2CC[C@@H]2C)nc1C(F)(F)F [Compound A5, 2-(4-{2-[(S)-2-methyl-1-azetidinyl]-5-methoxy-6-(trifluoromethyl)-4-pyrimidinyl}-1-pyrazolyl)-1-(1-piperazinyl)-1-ethanone] | 7.36 | 7.59 | 7.16 | 7.51
6 | O[C@@H]1CN(c2nc(-c3cnn(C4CNC4)c3)cc(C(F)(F)F)n2)[C@H]1C(F)(F)F (racemic) [Compound A31, (2R,3R)-1-{4-[1-(3-azetidinyl)-4-pyrazolyl]-6-(trifluoromethyl)-2-pyrimidinyl}-2-(trifluoromethyl)-3-azetidinol] | – | – | – | 7.77
7 | C[C@H]1CCN1c1nc(-c2cnn(CC(=O)N3CCNCC3)c2)c(Cl)c(C(F)(F)F)n1 [Compound A4, 2-(4-{2-[(S)-2-methyl-1-azetidinyl]-5-chloro-6-(trifluoromethyl)-4-pyrimidinyl}-1-pyrazolyl)-1-(1-piperazinyl)-1-ethanone] | 8.31 | 8.89 | 8.74 | 8.23
8 | CCc1c(-c2cnn(CC(=O)N3CCNCC3)c2)nc(N2CC[C@@H]2C)nc1C(F)F [Compound A26, 2-(4-{2-[(S)-2-methyl-1-azetidinyl]-6-(difluoromethyl)-5-ethyl-4-pyrimidinyl}-1-pyrazolyl)-1-(1-piperazinyl)-1-ethanone] | 7.59 | 8.28 | 7.89 | 7.48
9 | C[C@H]1CCN1c1nc(-c2cnn(CC(=O)N3CCNCC3)c2)c(F)c(C(F)F)n1 [Compound A22, 2-(4-{2-[(S)-2-methyl-1-azetidinyl]-6-(difluoromethyl)-5-fluoro-4-pyrimidinyl}-1-pyrazolyl)-1-(1-piperazinyl)-1-ethanone] | – | – | – | 7.18
10 | COc1c(-c2cnn(CC(=O)N3CCNCC3)c2)nc(N2CC[C@@H]2C(F)(F)F)nc1C(F)(F)F [Compound A28, 2-(4-{2-[(R)-2-(trifluoromethyl)-1-azetidinyl]-5-methoxy-6-(trifluoromethyl)-4-pyrimidinyl}-1-pyrazolyl)-1-(1-piperazinyl)-1-ethanone] | 7.70 | 8.39 | 7.82 | 7.74
11 | CN1CC(n2cc(-c3cc(C(F)(F)F)nc(N4C[C@@H](O)[C@@H]4C(F)(F)F)n3)cn2)C1 (racemic) [Compound A25, (2R,3R)-1-{4-[1-(1-methyl-3-azetidinyl)-4-pyrazolyl]-6-(trifluoromethyl)-2-pyrimidinyl}-2-(trifluoromethyl)-3-azetidinol] | 7.82 | 8.24 | 8.66 | 8.28
12 | O=C(Cn1cc(-c2nc(N3CC[C@@H]3C(F)(F)F)nc(C(F)(F)F)c2Cl)cn1)N1CCNCC1 [Compound A29, 2-(4-{2-[(R)-2-(trifluoromethyl)-1-azetidinyl]-5-chloro-6-(trifluoromethyl)-4-pyrimidinyl}-1-pyrazolyl)-1-(1-piperazinyl)-1-ethanone] | – | – | – | 8.30
13 | O=C(Cn1cc(-c2nc(N3CC[C@@H]3C(F)F)nc(C(F)(F)F)c2C2CC2)cn1)N1CCNCC1 [Compound A17, 2-(4-{2-[(R)-2-(difluoromethyl)-1-azetidinyl]-5-cyclopropyl-6-(trifluoromethyl)-4-pyrimidinyl}-1-pyrazolyl)-1-(1-piperazinyl)-1-ethanone] | – | – | – | 7.13
14 | COc1c(-c2cnn(CC(=O)N3CCNCC3)c2)nc(N2CC[C@@H]2C(F)(F)F)nc1C(F)F [Compound A15, 2-(4-{2-[(R)-2-(trifluoromethyl)-1-azetidinyl]-6-(difluoromethyl)-5-methoxy-4-pyrimidinyl}-1-pyrazolyl)-1-(1-piperazinyl)-1-ethanone] | – | – | – | 7.49
15 | O=C(Cn1cc(-c2nc(N3CC[C@@H]3C(F)F)nc(C(F)F)c2C2CC2)cn1)N1CCNCC1 [Compound A13, 2-(4-{2-[(R)-2-(difluoromethyl)-1-azetidinyl]-5-cyclopropyl-6-(difluoromethyl)-4-pyrimidinyl}-1-pyrazolyl)-1-(1-piperazinyl)-1-ethanone] | – | – | – | 7.39
16 | O=C(Cn1cc(-c2nc(N3CC[C@@H]3C(F)F)nc(C(F)(F)F)c2F)cn1)N1CCNCC1 [Compound A16, 2-(4-{2-[(R)-2-(difluoromethyl)-1-azetidinyl]-5-fluoro-6-(trifluoromethyl)-4-pyrimidinyl}-1-pyrazolyl)-1-(1-piperazinyl)-1-ethanone] | – | – | – | 7.32
17 | COc1c(-c2cnn(CC(=O)N3CCNCC3)c2)nc(N2CC[C@@H]2C)nc1C(F)F [Compound A23, 2-(4-{2-[(S)-2-methyl-1-azetidinyl]-6-(difluoromethyl)-5-methoxy-4-pyrimidinyl}-1-pyrazolyl)-1-(1-piperazinyl)-1-ethanone] | – | – | – | 7.26
18 | O=C(Cn1cc(-c2cc(C(F)F)nc(N3CC[C@@H]3C(F)F)n2)cn1)N1CCNCC1 [Compound A14, 2-(4-{2-[(R)-2-(difluoromethyl)-1-azetidinyl]-6-(difluoromethyl)-4-pyrimidinyl}-1-pyrazolyl)-1-(1-piperazinyl)-1-ethanone] | – | – | – | 6.50

More lines, now with the values ahead:

Row | pIC50 (Rat recombinant KHK-C) | pIC50 (Rat recombinant KHK-A) | pIC50 (Human recombinant KHK-A) | pIC50 (Human recombinant KHK-C) | SMILES
19 | 7.70 | 8.09 | 7.92 | 7.63 | C[C@H]1CCN1c1nc(-c2cnn(CC(=O)N3CCNCC3)c2)c(F)c(C(F)(F)F)n1 [Compound A32, 2-(4-{2-[(S)-2-methyl-1-azetidinyl]-5-fluoro-6-(trifluoromethyl)-4-pyrimidinyl}-1-pyrazolyl)-1-(1-piperazinyl)-1-ethanone]
20 | – | – | – | 7.92 | O=C(Cn1cc(-c2nc(N3CC[C@@H]3C(F)F)nc(C(F)F)c2Cl)cn1)N1CCNCC1 [Compound A37, 2-(4-{2-[(R)-2-(difluoromethyl)-1-azetidinyl]-5-chloro-6-(difluoromethyl)-4-pyrimidinyl}-1-pyrazolyl)-1-(1-piperazinyl)-1-ethanone]
21 | – | – | – | 7.21 | COc1c(-c2cnn(CC(=O)N3CCNCC3)c2)nc(N2CC[C@@H]2C(F)F)nc1C(F)F [Compound A44, 2-(4-{2-[(R)-2-(difluoromethyl)-1-azetidinyl]-6-(difluoromethyl)-5-methoxy-4-pyrimidinyl}-1-pyrazolyl)-1-(1-piperazinyl)-1-ethanone]
22 | – | – | – | 6.96 | O=C(Cn1cc(-c2nc(N3CC[C@@H]3C(F)F)nc(C(F)F)c2F)cn1)N1CCNCC1 [Compound A39, 2-(4-{2-[(R)-2-(difluoromethyl)-1-azetidinyl]-6-(difluoromethyl)-5-fluoro-4-pyrimidinyl}-1-pyrazolyl)-1-(1-piperazinyl)-1-ethanone]
23 | – | – | – | 7.48 | CCc1c(-c2cnn(CC(=O)N3CCNCC3)c2)nc(N2CC[C@@H]2C(F)F)nc1C(F)F [Compound A40, 2-(4-{2-[(R)-2-(difluoromethyl)-1-azetidinyl]-6-(difluoromethyl)-5-ethyl-4-pyrimidinyl}-1-pyrazolyl)-1-(1-piperazinyl)-1-ethanone]
24 | – | – | – | 7.60 | C[C@H]1[C@H](O)CN1c1nc(-c2cnn(C3CN(C)C3)c2)c(C2CC2)c(C(F)(F)F)n1 [Compound A34, (2S,3R)-1-{5-cyclopropyl-4-[1-(1-methyl-3-azetidinyl)-4-pyrazolyl]-6-(trifluoromethyl)-2-pyrimidinyl}-2-methyl-3-azetidinol]
25 | – | – | – | 7.44 | COc1c(-c2cnn(CC(=O)N3CCNCC3)c2)nc(N2CC[C@@H]2C(F)F)nc1C(F)(F)F [Compound A36, 2-(4-{2-[(R)-2-(difluoromethyl)-1-azetidinyl]-5-methoxy-6-(trifluoromethyl)-4-pyrimidinyl}-1-pyrazolyl)-1-(1-piperazinyl)-1-ethanone]
26 | – | – | – | 7.77 | CCc1c(-c2cnn(CC(=O)N3CCNCC3)c2)nc(N2CC[C@@H]2C(F)F)nc1C(F)(F)F [Compound A41, 2-(4-{2-[(R)-2-(difluoromethyl)-1-azetidinyl]-5-ethyl-6-(trifluoromethyl)-4-pyrimidinyl}-1-pyrazolyl)-1-(1-piperazinyl)-1-ethanone]
